These results are taken from patent US20180133248A1, “T[…] AGENT AND TREATMENT” (priority 2014, published 2018).

The experiment concerns normal bank blood. The experiment can be described thus: In vitro pO2 and hemoglobin saturation of bank blood after oxygen or ozone/oxygen treatment. The following applies: 5 minutes after gas administration. As to the method:
Ozone/oxygen was obtained from a pure (medical grade) oxygen by means of a medical ozone generator (Ozomed, a device manufactured in N.C.S.R., Havana, Cuba), at a concentration of 50 mg ozone/L oxygen (ca. 3.7%).
The ability of ozone/oxygen to in vitro raise pO2 of normal bank blood was compared to that of pure medical oxygen. To each one often paired (5+5) blood samples (5 mL each) contained in closed 10 ml vials, 2.5 mL of pure oxygen or ozone/oxygen mixture respectively were carefully bubbled through. Gasometric analyses were performed in test samples 5 minutes after gas administration and also in control untreated samples.

Molecule `O=O` [O2, oxygen] returned a PO2 (5 mL blood, 2.5 mL gas bubbled through, n = 5, control 41 ± 1) of 73 ± 2. Besides, the “PO2 rise (%) (above control)” value (n = 5) was determined as 78%. This molecule also registered an HB saturation (n = 5, control 60 ± 1) of 86 ± 2.
